# Data published in ChEMBL document CHEMBL4330134, “Design, synthesis, and bioevaluation of a novel class of (E)-4-oxo-crotonamide derivatives as potent antituberculosis agents” (Bioorg Med Chem Lett, 2019).
# Test system: Mycobacterium tuberculosis
# Assay: Antimycobacterial activity against miltidrug-resistant Mycobacterium tuberculosis
# Assay type: functional
smiles,measurement,value
COC(=O)/C=C/C(=O)c1ccc(OC)cc1,MIC,0.25 to 1 µg/mL
